This note sets out measurements from patent publication US10130629B2, “Pharmaceutical combinations” (Novartis AG, priority 2015, dated 2018).

Experiment [1] relates to HuH-7 hepatocellular carcinoma cells. Put plainly: CellTiter Glo (CTG) proliferation assay. In kind it is cell-based. As to conditions: Homo sapiens, Huh-7, 72 h; 3 days incubation; half-maximal growth inhibition; read-out: HUH7 proliferation (nM) CTG. As for the experimental part:
CellTiter Glo (CTG) assay: The functional effect of compounds on cell proliferation is assessed using HuH-7 hepatocellular carcinoma cells obtained from the Japanese Collection of Research Bioresources Cell Bank (Cat# JCRB0403) and cultured in the vendor-recommended medium (DMEM high glucose (Amimed Cat#1-26F01-I), 10% foetal calf serum (Invitrogen Cat#16140-071), 1 mM sodium pyruvate (Amimed Cat#5-60F00-H), 1× Penicillin/Streptomycin (Amimed Cat#4-01F00-H)) at 37° C. in a humidified 5% CO2 incubator. Compound-mediated suppression of cell proliferation/viability is assessed by quantification of cellular ATP levels using the CellTiter-Glo (CTG) reagent (Promega, Cat# G7573). […] Dose-response effects are assessed by 3-fold serial dilutions of the test compound, starting at 10 μM. Following incubation of the cells for 3 days at 37° C. and 5% CO2, the effect of inhibitors on cell viability is quantified following addition of 50 μl CTG and luminescence measurement (integration time: 500 ms) as per vendor manual, using a correspondingly equipped multi-mode plate reader (M200Pro, TECAN, Switzerland). For data analysis, the assay background value determined in wells containing medium, but no cells, is subtracted from all data points. […] Compound concentrations leading to half-maximal growth inhibition ([…]) are determined using standard four parameter curve fitting (XLfit 5.2., IDBS, UK).
A general note: In ATP-based viability assays light output follows the ATP content of the culture.

For experiment [2] the test system is unchanged. Put plainly: Methylene blue staining proliferation assay (MBS). As to conditions: Homo sapiens, 72 hours after compound addition, read-out: HUH7 proliferation (nM) MBS. In kind it is cell-based. As to the method: Methylene blue staining proliferation assay (MBS): The effect of the compound on cell proliferation is assessed using HuH-7 hepatocellular carcinoma cells obtained from the Japanese Collection of Research Bioresources Cell Bank (Cat# JCRB0403) and cultured in the vendor-recommended medium (DMEM high glucose (Amimed Cat#1-26F01-I), 10% foetal calf serum (Invitrogen Cat#16140-071), 1 mM sodium pyruvate (Amimed Cat#5-60F00-H), 1× Penicillin/Streptomycin (Amimed Cat#4-01F00-H)) at 37° C. in a humidified 5% CO2 incubator. Specifically, 5000 cells/well were seeded in 96-well tissue culture plates (TPP Cat#92696) in a total media volume of 100 μl/well and increasing compound dilutions or DMSO were added 24 hours thereafter in triplicates. 72 hours after compound addition, cells were fixed by adding 25 μL/well of 20% glutaraldehyde (Sigma Aldrich Cat# G400-4) and incubated for 10 minutes at room temperature. Cells were washed three times with H2O, 200 μL/well and stained with 100 μL/well 0.05% methylene blue (ABCR GmbH Cat# AB117904) for 10 minutes at room temperature. Cells were washed 3 times with H2O, 200 μL/well and then lysed by adding 200 μL/well of 3% HCl (Fluka Cat#84422) for 30 minutes at room temperature with shaking. Optical density was measured at A650 nm. […]

As to `COCCNc1cc(NC(=O)N2CCCc3cc(CN4CCN(C)CC4=O)c(C=O)nc32)ncc1C#N` [Example 83, N-(5-cyano-4-((2-methoxyethyl)amino)pyridin-2-yl)-7-formyl-6-((4-methyl-2-oxopiperazin-1-yl)methyl)-3,4-dihydro-1,8-naphthyridine-1(2H)-carboxamide], the figures for the IC50 in experiment [1] and in experiment [2] were 60.9 nM and 12 nM, respectively.
